# Assay results from PubChem BioAssay (NCI).
#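 Test compounds were applied to cells in 96-well plates for 48 hours at 5 doses. TGI is the concentration that stops growth completely.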
# Assays:
# Assay in all cases: growth of human tumour cells (NCI), 48 h
# 786-0 renal = tested on: 786-0 renal
# A549 NSCLC = tested on: A549 NSCLC
# ACHN renal = tested on: ACHN renal
# BT-549 breast = tested on: BT-549 breast
# CAKI-1 renal = tested on: CAKI-1 renal
# CCRF-CEM leukemia = tested on: CCRF-CEM leukemia
# COLO 205 colon = tested on: COLO 205 colon
# DU-145 prostate = tested on: DU-145 prostate
# EKVX NSCLC = tested on: EKVX NSCLC
# HCC-2998 colon = tested on: HCC-2998 colon
# HCT-116 colon = tested on: HCT-116 colon
# HCT-15 colon = tested on: HCT-15 colon
# HL-60(TB) leukemia = tested on: HL-60(TB) leukemia
# HOP-62 NSCLC = tested on: HOP-62 NSCLC
# HS 578T breast = tested on: HS 578T breast
# HT29 colon = tested on: HT29 colon
# IGROV1 ovarian = tested on: IGROV1 ovarian
# K-562 leukemia = tested on: K-562 leukemia
# KM12 colon = tested on: KM12 colon
# LOX IMVI melanoma = tested on: LOX IMVI melanoma
# M14 melanoma = tested on: M14 melanoma
# MALME-3M melanoma = tested on: MALME-3M melanoma
# MCF7 breast = tested on: MCF7 breast
# MDA-MB-231 breast = tested on: MDA-MB-231 breast
# MDA-MB-435 = tested on: MDA-MB-435
# MDA-N = tested on: MDA-N
# MOLT-4 leukemia = tested on: MOLT-4 leukemia
# NCI-H226 lung = tested on: NCI-H226 lung
# NCI-H23 lung = tested on: NCI-H23 lung
# NCI-H460 lung = tested on: NCI-H460 lung
# NCI-H522 lung = tested on: NCI-H522 lung
# NCI/ADR-RES ovarian = tested on: NCI/ADR-RES ovarian
# OVCAR-3 ovarian = tested on: OVCAR-3 ovarian
# OVCAR-4 ovarian = tested on: OVCAR-4 ovarian
# OVCAR-5 ovarian = tested on: OVCAR-5 ovarian
# OVCAR-8 ovarian = tested on: OVCAR-8 ovarian
# PC-3 prostate = tested on: PC-3 prostate
# RPMI-8226 leukemia = tested on: RPMI-8226 leukemia
# RXF 393 renal = tested on: RXF 393 renal
# SF-268 CNS = tested on: SF-268 CNS
# SF-295 CNS = tested on: SF-295 CNS
# SK-MEL-2 melanoma = tested on: SK-MEL-2 melanoma
# SK-MEL-28 melanoma = tested on: SK-MEL-28 melanoma
# SK-MEL-5 melanoma = tested on: SK-MEL-5 melanoma
# SK-OV-3 ovarian = tested on: SK-OV-3 ovarian
# SN12C renal = tested on: SN12C renal
# SNB-19 CNS = tested on: SNB-19 CNS
# SNB-75 CNS = tested on: SNB-75 CNS
# SR leukemia = tested on: SR leukemia
# SW-620 colon = tested on: SW-620 colon
# T-47D breast = tested on: T-47D breast
# TK-10 renal = tested on: TK-10 renal
# U251 CNS = tested on: U251 CNS
# UACC-257 melanoma = tested on: UACC-257 melanoma
# UACC-62 melanoma = tested on: UACC-62 melanoma
# UO-31 renal = tested on: UO-31 renal
# A498 renal = tested on: A498 renal
# HOP-92 NSCLC = tested on: HOP-92 NSCLC
# SF-539 CNS = tested on: SF-539 CNS
smiles,measurement,setting,value
CC(Cc1ccc2c(c1)OCO2)N(C)C(=O)C1=CCN(C)CC1 (stereo unspecified),TGI,786-0 renal,> 100 µM
same,TGI,A549 NSCLC,> 100 µM
same,TGI,ACHN renal,> 100 µM
same,TGI,BT-549 breast,> 100 µM
same,TGI,CAKI-1 renal,> 100 µM
same,TGI,CCRF-CEM leukemia,> 100 µM
same,TGI,COLO 205 colon,> 100 µM
same,TGI,DU-145 prostate,> 100 µM
same,TGI,EKVX NSCLC,> 100 µM
same,TGI,HCC-2998 colon,> 100 µM
same,TGI,HCT-116 colon,> 100 µM
same,TGI,HCT-15 colon,> 100 µM
same,TGI,HL-60(TB) leukemia,> 100 µM
same,TGI,HOP-62 NSCLC,> 100 µM
same,TGI,HS 578T breast,> 100 µM
same,TGI,HT29 colon,> 100 µM
same,TGI,IGROV1 ovarian,> 100 µM
same,TGI,K-562 leukemia,> 100 µM
same,TGI,KM12 colon,> 100 µM
same,TGI,LOX IMVI melanoma,> 100 µM
same,TGI,M14 melanoma,> 100 µM
same,TGI,MALME-3M melanoma,> 100 µM
same,TGI,MCF7 breast,> 100 µM
same,TGI,MDA-MB-231 breast,> 100 µM
same,TGI,MDA-MB-435,> 100 µM
same,TGI,MDA-N,> 100 µM
same,TGI,MOLT-4 leukemia,> 100 µM
same,TGI,NCI-H226 lung,> 100 µM
same,TGI,NCI-H23 lung,> 100 µM
same,TGI,NCI-H460 lung,> 100 µM
same,TGI,NCI-H522 lung,> 100 µM
same,TGI,NCI/ADR-RES ovarian,> 100 µM
same,TGI,OVCAR-3 ovarian,> 100 µM
same,TGI,OVCAR-4 ovarian,> 100 µM
same,TGI,OVCAR-5 ovarian,> 100 µM
same,TGI,OVCAR-8 ovarian,> 100 µM
same,TGI,PC-3 prostate,> 100 µM
same,TGI,RPMI-8226 leukemia,> 100 µM
same,TGI,RXF 393 renal,> 100 µM
same,TGI,SF-268 CNS,> 100 µM
same,TGI,SF-295 CNS,> 100 µM
same,TGI,SK-MEL-2 melanoma,> 100 µM
same,TGI,SK-MEL-28 melanoma,> 100 µM
same,TGI,SK-MEL-5 melanoma,> 100 µM
same,TGI,SK-OV-3 ovarian,> 100 µM
same,TGI,SN12C renal,> 100 µM
same,TGI,SNB-19 CNS,> 100 µM
same,TGI,SNB-75 CNS,> 100 µM
same,TGI,SR leukemia,> 100 µM
same,TGI,SW-620 colon,> 100 µM
same,TGI,T-47D breast,> 100 µM
same,TGI,TK-10 renal,> 100 µM
same,TGI,U251 CNS,> 100 µM
same,TGI,UACC-257 melanoma,> 100 µM
same,TGI,UACC-62 melanoma,> 100 µM
same,TGI,UO-31 renal,> 100 µM
CN(C)CC1=Nc2cccc3cccc(c23)N1,TGI,786-0 renal,25.8 µM
same,TGI,A498 renal,28.2 µM
same,TGI,A549 NSCLC,> 100 µM
same,TGI,ACHN renal,28.2 µM
same,TGI,BT-549 breast,31.5 µM
same,TGI,CAKI-1 renal,38.6 µM
same,TGI,CCRF-CEM leukemia,> 100 µM
same,TGI,COLO 205 colon,7.11 µM
same,TGI,DU-145 prostate,30.9 µM
same,TGI,EKVX NSCLC,31.7 µM
same,TGI,HCC-2998 colon,32.3 µM
same,TGI,HCT-116 colon,30.8 µM
same,TGI,HCT-15 colon,77.5 µM
same,TGI,HL-60(TB) leukemia,45.2 µM
same,TGI,HOP-62 NSCLC,> 100 µM
same,TGI,HOP-92 NSCLC,33.1 µM
same,TGI,HS 578T breast,> 100 µM
same,TGI,HT29 colon,53.7 µM
same,TGI,IGROV1 ovarian,36.6 µM
same,TGI,K-562 leukemia,62.3 µM
same,TGI,KM12 colon,59.3 µM
same,TGI,LOX IMVI melanoma,37.3 µM
same,TGI,M14 melanoma,34.7 µM
same,TGI,MALME-3M melanoma,36.5 µM
same,TGI,MCF7 breast,30.8 µM
same,TGI,MDA-MB-231 breast,34.7 µM
same,TGI,MDA-MB-435,38.1 µM
same,TGI,MDA-N,35 µM
same,TGI,NCI-H226 lung,37.4 µM
same,TGI,NCI-H23 lung,49.9 µM
same,TGI,NCI-H460 lung,> 100 µM
same,TGI,NCI/ADR-RES ovarian,> 100 µM
same,TGI,OVCAR-3 ovarian,30.5 µM
same,TGI,OVCAR-4 ovarian,26.6 µM
same,TGI,OVCAR-5 ovarian,31.6 µM
same,TGI,OVCAR-8 ovarian,> 100 µM
same,TGI,PC-3 prostate,32.3 µM
same,TGI,RPMI-8226 leukemia,55.8 µM
same,TGI,RXF 393 renal,31.9 µM
same,TGI,SF-268 CNS,33.4 µM
same,TGI,SF-295 CNS,> 100 µM
same,TGI,SF-539 CNS,35.9 µM
same,TGI,SK-MEL-2 melanoma,35.5 µM
same,TGI,SK-MEL-28 melanoma,49.1 µM
same,TGI,SK-MEL-5 melanoma,28.7 µM
same,TGI,SK-OV-3 ovarian,> 100 µM
same,TGI,SN12C renal,31.8 µM
same,TGI,SNB-19 CNS,> 100 µM
same,TGI,SNB-75 CNS,30.4 µM
same,TGI,SR leukemia,84.3 µM
same,TGI,SW-620 colon,> 100 µM
same,TGI,T-47D breast,24.6 µM
same,TGI,TK-10 renal,32.3 µM
same,TGI,U251 CNS,32.5 µM
same,TGI,UACC-257 melanoma,31 µM
same,TGI,UACC-62 melanoma,29.6 µM
same,TGI,UO-31 renal,23 µM
Nc1nc(NCCOCP(=O)(O)O)c(N)c(=O)[nH]1,TGI,786-0 renal,> 100 µM
same,TGI,A498 renal,> 100 µM
same,TGI,A549 NSCLC,> 100 µM
same,TGI,ACHN renal,> 100 µM
same,TGI,BT-549 breast,> 100 µM
same,TGI,CAKI-1 renal,> 100 µM
same,TGI,CCRF-CEM leukemia,> 100 µM
same,TGI,COLO 205 colon,> 100 µM
same,TGI,DU-145 prostate,> 100 µM
same,TGI,EKVX NSCLC,> 100 µM
same,TGI,HCC-2998 colon,> 100 µM
same,TGI,HCT-116 colon,> 100 µM
same,TGI,HCT-15 colon,> 100 µM
same,TGI,HL-60(TB) leukemia,> 100 µM
same,TGI,HOP-62 NSCLC,> 100 µM
same,TGI,HOP-92 NSCLC,> 100 µM
same,TGI,HS 578T breast,> 100 µM
same,TGI,HT29 colon,> 100 µM
same,TGI,IGROV1 ovarian,> 100 µM
same,TGI,K-562 leukemia,> 100 µM
same,TGI,KM12 colon,> 100 µM
same,TGI,LOX IMVI melanoma,> 100 µM
same,TGI,M14 melanoma,> 100 µM
same,TGI,MALME-3M melanoma,> 100 µM
same,TGI,MCF7 breast,> 100 µM
same,TGI,MDA-MB-231 breast,> 100 µM
same,TGI,MDA-MB-435,> 100 µM
same,TGI,MDA-N,> 100 µM
same,TGI,MOLT-4 leukemia,> 100 µM
same,TGI,NCI-H226 lung,> 100 µM
same,TGI,NCI-H23 lung,> 100 µM
same,TGI,NCI-H460 lung,> 100 µM
same,TGI,NCI/ADR-RES ovarian,> 100 µM
same,TGI,OVCAR-3 ovarian,> 100 µM
same,TGI,OVCAR-4 ovarian,> 100 µM
same,TGI,OVCAR-5 ovarian,> 100 µM
same,TGI,OVCAR-8 ovarian,> 100 µM
same,TGI,PC-3 prostate,> 100 µM
same,TGI,RPMI-8226 leukemia,> 100 µM
same,TGI,RXF 393 renal,> 100 µM
same,TGI,SF-268 CNS,> 100 µM
same,TGI,SF-295 CNS,> 100 µM
same,TGI,SF-539 CNS,> 100 µM
same,TGI,SK-MEL-2 melanoma,> 100 µM
same,TGI,SK-MEL-28 melanoma,> 100 µM
same,TGI,SK-MEL-5 melanoma,> 100 µM
same,TGI,SK-OV-3 ovarian,> 100 µM
same,TGI,SN12C renal,> 100 µM
same,TGI,SNB-19 CNS,> 100 µM
same,TGI,SNB-75 CNS,> 100 µM
same,TGI,SR leukemia,> 100 µM
same,TGI,SW-620 colon,> 100 µM
same,TGI,T-47D breast,> 100 µM
same,TGI,TK-10 renal,> 100 µM
same,TGI,U251 CNS,> 100 µM
same,TGI,UACC-257 melanoma,> 100 µM
same,TGI,UACC-62 melanoma,> 100 µM
same,TGI,UO-31 renal,> 100 µM
